Converted amounts (≈) assume the structure as drawn.
What was measured:
[1] = molecular target: Adenosine receptor A2a (Rattus norvegicus) (UniProt P30543); experiment: Displacement of [3H]MSX from A2A receptor in rat brain striatum membranes at 1 uM measured after 30 mins by liquid scintillation counting method relative to control; assay type: cell membranes
[2] = molecular target: T1, Adenosine receptor A1 (Rattus norvegicus) (UniProt P25099); experiment: Displacement of [3H]CCPA from A1 receptor in rat brain cortex membranes at 1.5 uM by liquid scintillation counting method; assay type: cell membranes
T1 sequence (whole entry): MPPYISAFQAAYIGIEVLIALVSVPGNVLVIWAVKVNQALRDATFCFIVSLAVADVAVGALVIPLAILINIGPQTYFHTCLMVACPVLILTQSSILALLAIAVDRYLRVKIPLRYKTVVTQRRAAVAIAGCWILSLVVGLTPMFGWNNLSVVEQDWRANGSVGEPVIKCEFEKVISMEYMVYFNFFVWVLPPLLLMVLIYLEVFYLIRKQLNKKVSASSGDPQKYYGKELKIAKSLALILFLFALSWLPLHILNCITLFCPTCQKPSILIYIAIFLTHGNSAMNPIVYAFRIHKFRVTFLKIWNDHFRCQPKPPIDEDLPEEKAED

Adenosine receptor A2b = molecular target: T2, Adenosine receptor A2b (Homo sapiens, UniProt P29275); experiment: Displacement of [3H]PSB-603 from human A2B receptor expressed in CHO cell membrane; assay type: cell membranes
T2 sequence (P29275 whole entry): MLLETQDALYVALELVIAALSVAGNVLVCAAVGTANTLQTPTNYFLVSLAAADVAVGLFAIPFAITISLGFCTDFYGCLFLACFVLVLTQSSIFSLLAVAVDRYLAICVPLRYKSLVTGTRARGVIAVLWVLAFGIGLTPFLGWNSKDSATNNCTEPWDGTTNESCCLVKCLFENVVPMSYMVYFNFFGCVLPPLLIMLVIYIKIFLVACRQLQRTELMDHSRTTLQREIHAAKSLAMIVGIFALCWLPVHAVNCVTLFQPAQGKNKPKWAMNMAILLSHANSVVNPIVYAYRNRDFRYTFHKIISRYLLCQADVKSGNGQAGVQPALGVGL

[3] = molecular target: T3, Amine oxidase [flavin-containing] B (Homo sapiens, UniProt P27338); experiment: Inhibition of recombinant human MAO-B expressed in baculovirus infected BTI insect cells at 10 uM preincubated for 30 mins followed by addition of p-tyramine as substrate measured over 45 mins by Amplex Red MAO assay relative to control; settings: 0.75 h
T3 sequence (P27338 whole entry): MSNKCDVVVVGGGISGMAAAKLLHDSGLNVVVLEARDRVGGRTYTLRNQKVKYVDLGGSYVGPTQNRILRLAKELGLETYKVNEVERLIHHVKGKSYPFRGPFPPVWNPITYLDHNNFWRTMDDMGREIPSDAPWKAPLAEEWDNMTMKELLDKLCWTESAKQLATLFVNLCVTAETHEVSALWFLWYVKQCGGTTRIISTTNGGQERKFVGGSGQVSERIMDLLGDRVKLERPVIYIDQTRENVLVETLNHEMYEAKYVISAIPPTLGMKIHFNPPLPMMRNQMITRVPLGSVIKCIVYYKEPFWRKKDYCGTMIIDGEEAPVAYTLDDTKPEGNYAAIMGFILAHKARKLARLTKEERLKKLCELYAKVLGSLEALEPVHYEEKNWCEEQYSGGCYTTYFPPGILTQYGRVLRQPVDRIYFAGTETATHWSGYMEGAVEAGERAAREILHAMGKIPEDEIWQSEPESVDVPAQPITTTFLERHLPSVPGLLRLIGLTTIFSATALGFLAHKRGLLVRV

Adenosine receptor A2a = Adenosine receptor A2a (Rattus norvegicus, UniProt P30543); experiment: Displacement of [3H]MSX from A2A receptor in rat brain striatum membranes measured after 30 mins by liquid scintillation counting method; assay type: cell membranes
Sequence of Adenosine receptor A2a (P30543 whole entry): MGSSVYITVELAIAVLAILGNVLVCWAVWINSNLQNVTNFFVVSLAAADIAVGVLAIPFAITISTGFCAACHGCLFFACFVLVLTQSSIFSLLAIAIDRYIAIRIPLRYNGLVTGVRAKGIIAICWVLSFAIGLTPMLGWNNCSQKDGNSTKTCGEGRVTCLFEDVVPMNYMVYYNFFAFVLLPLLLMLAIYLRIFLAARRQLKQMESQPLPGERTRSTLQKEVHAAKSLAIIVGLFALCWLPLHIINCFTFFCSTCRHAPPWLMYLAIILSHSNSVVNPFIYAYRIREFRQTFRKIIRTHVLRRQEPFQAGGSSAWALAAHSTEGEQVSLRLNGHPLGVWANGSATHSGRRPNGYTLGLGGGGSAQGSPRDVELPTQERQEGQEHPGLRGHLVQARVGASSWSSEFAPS

[4] = molecular target: T4, Adenosine receptor A3 (Homo sapiens) (UniProt P0DMS8); experiment: Displacement of [3H]PSB-11 from human A3 receptor expressed in CHO cell membrane at 10 uM by liquid scintillation counting method relative to control relative to control; assay type: cell membranes
T4 sequence (whole entry): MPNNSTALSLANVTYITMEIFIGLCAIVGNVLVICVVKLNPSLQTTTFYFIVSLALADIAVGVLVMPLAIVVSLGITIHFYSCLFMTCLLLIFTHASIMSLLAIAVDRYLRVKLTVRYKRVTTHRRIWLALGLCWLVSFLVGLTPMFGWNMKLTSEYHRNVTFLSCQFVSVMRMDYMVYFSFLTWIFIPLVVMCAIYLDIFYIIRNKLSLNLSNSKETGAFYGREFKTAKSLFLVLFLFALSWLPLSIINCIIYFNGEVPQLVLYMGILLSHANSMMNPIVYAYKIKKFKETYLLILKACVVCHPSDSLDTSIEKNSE

[5] = molecular target: T3, Amine oxidase [flavin-containing] B; experiment: Inhibition of recombinant human MAO-B expressed in baculovirus infected BTI insect cells preincubated for 30 mins followed by addition of p-tyramine as substrate measured over 45 mins by Amplex Red MAO assay
Adenosine receptor A3 = molecular target: T5, Adenosine receptor A3 (Homo sapiens, UniProt P0DMS8); experiment: Displacement of [3H]PSB-11 from human A3 receptor expressed in CHO cell membrane by liquid scintillation counting method relative to control; assay type: cell membranes
T5 sequence (P0DMS8 whole entry): T4 sequence (whole entry)

Adenosine receptor A1 = molecular target: T6, Adenosine receptor A1 (Rattus norvegicus, UniProt P25099); experiment: Displacement of [3H]CCPA from A1 receptor in rat brain cortex membranes by liquid scintillation counting method; assay type: cell membranes
T6 sequence (P25099 whole entry): T1 sequence (whole entry)

[6] = molecular target: T7, Adenosine receptor A2b (Homo sapiens) (UniProt P29275); experiment: Displacement of [3H]PSB-603 from human A2B receptor expressed in CHO cell membrane at 1 uM relative to control; assay type: cell membranes
T7 sequence (whole entry): T2 sequence (P29275 whole entry)

[7] = molecular target: T8, Amine oxidase [flavin-containing] A (Homo sapiens, UniProt P21397); experiment: Inhibition of recombinant human MAO-A expressed in baculovirus infected BTI insect cells preincubated for 30 mins followed by addition of p-tyramine as substrate measured over 45 mins by Amplex Red MAO assay
T8 sequence (P21397 whole entry): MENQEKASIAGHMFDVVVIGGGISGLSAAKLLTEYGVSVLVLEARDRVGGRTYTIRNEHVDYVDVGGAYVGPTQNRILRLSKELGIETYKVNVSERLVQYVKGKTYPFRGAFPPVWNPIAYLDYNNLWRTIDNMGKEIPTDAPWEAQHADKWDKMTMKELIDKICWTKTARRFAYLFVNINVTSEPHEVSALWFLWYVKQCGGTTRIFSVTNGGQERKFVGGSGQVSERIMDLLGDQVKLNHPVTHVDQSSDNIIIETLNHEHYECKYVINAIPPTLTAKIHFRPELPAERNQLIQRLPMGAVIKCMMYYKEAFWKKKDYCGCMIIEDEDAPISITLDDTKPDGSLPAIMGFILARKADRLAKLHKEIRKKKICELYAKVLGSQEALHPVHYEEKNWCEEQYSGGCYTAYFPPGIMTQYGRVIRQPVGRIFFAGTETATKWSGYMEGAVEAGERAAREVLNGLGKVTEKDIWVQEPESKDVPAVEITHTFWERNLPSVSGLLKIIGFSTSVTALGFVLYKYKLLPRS

[8] = molecular target: T8, Amine oxidase [flavin-containing] A; experiment: Inhibition of recombinant human MAO-A expressed in baculovirus infected BTI insect cells at 10 uM preincubated for 30 mins followed by addition of p-tyramine as substrate measured over 45 mins by Amplex Red MAO assay relative to control; settings: 0.75 h
[9] = Thermodynamic solubility of the compound at pH 7.4; assay type: physicochemical; settings: buffer, read-out: Therm_solubility

Sequence of Adenosine receptor A2a (Rattus norvegicus) (P30543 whole entry): as the sequence (P30543 whole entry) above

SMILES | Activity [1] [%] | Activity [2] [%] | Ki (Adenosine receptor A2b) [nM] | inhibition at 10 µM [3] [%] | Ki (Adenosine receptor A2a) [nM] | Activity [4] [%] | IC50 [5] [µM] | Ki (Adenosine receptor A3) [µM] | Ki (Adenosine receptor A1) [nM] | Activity [6] [%] | IC50 [7] [µM] | inhibition at 10 µM [8] [%] | solubility thermodynamic [9] [µg/mL]
COc1cccc(C#CCN2CCn3c(nc4c3c(=O)n(C)c(=O)n4C)C2)c1 | 32 | 17 | > 1000 | 13 | > 1000 | 9 | > 10 | > 10 | > 1500 | 7 |  |  | 
COc1cccc(CCN2CCn3c(nc4c3c(=O)n(C)c(=O)n4C)C2)c1 | 31 | 17 | > 1000 | 10 | > 1000 | 23 | > 10 | > 10 | > 1500 | 5 |  |  | 
COc1cccc2c1CC[C@H](N1CCn3c(nc4c3c(=O)n(C)c(=O)n4C)C1)C2 | 11 | 11 | > 1000 | 7 | > 1000 | 8 | > 10 | > 10 | > 1500 | 9 | > 10 | 2 | 
Cn1c(=O)c2c(nc3n2CCN(CC#Cc2cccc(Cl)c2)C3)n(C)c1=O | 42 | 17 | > 1000 | 5 | > 1000 | 20 | > 10 | > 10 | > 1500 | 7 | > 10 | 19 | 
COc1ccccc1CCN1CCn2c(nc3c2c(=O)n(C)c(=O)n3C)C1 | 15 | 9 | > 1000 | 4 | > 1000 | 39 | > 10 | > 10 | > 1500 | 7 |  |  | 
Cn1c(=O)c2c(nc3n2CCN(Cc2cn(-c4ccc(Cl)cc4)nn2)C3)n(C)c1=O | 26 | 36 | > 1000 | 12 | > 1000 | 11 | > 10 | > 10 | > 1500 | 27 |  |  | 
COc1ccc(CCN2CCn3c(nc4c3c(=O)n(C)c(=O)n4C)C2)cc1OC | 16 | -2 | > 1000 | 13 | > 1000 | 43 | > 10 | > 10 | > 1500 | 6 |  |  | 
Cn1c(=O)c2c(nc3n2CCN(CCc2ccc(Cl)cc2)C3)n(C)c1=O |  | 22 | > 1000 | 36 | 4960 | 37 | > 10 | > 10 | > 1500 | 4 |  |  | 1 (≈ 2.67 µM)

Reference: ChEMBL document CHEMBL4428125, “8-Substituted 1,3-dimethyltetrahydropyrazino[2,1-f]purinediones: Water-soluble adenosine receptor antagonists and monoamine oxidase B inhibitors” (Bioorg Med Chem, 2016)
